Consider 15 molecules from publication PMC5962708, “Structure-Based Design, Synthesis, Biological Evaluation, and Molecular Docking of Novel PDE10 Inhibitors With Antioxidant Activities” (Frontiers in Chemistry, 2018).

Values joined by “and” are separate entries in the source; they are usually repeats but may differ in a detail not shown here. Equal entries are not always repeated.

For test [1], the target named is T1, PDE10A catalytic domain (residues 446-789) (Homo sapiens, UniProt Q9Y233).
T1 construct: coding the catalytic domain (residues 446-789); inferred from the pET15b vector and the Ni-NTA purification) (N); made in house; host or cells: E. coli BL21 (Codonplus, Stratagene)
T1 sequence (Q9Y233 712-1055): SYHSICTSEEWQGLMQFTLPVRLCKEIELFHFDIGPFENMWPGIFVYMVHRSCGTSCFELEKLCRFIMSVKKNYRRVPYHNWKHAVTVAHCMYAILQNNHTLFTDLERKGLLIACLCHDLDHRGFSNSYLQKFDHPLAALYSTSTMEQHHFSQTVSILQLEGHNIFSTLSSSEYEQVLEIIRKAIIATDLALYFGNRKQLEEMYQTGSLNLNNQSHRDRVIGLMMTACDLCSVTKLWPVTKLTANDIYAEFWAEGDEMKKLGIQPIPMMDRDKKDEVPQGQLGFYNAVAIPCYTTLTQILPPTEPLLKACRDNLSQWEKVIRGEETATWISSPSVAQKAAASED
Description: PDE10A enzymatic assay (3H-cGMP hydrolysis, scintillation counting). It is filed as biochemical. The settings on record: for inhibition at 1 µM: compound concentration 1 μM, read-out: PDE10 inhibitory assay Inhibition ratio (1 μM) (%); for IC50: mean of three independent determinations, 3H-cGMP substrate, read-out: PDE10 inhibitory assay IC50. The method, then:
The recombinant pET15b-PDE10A plasmid coding the catalytic domain (residues 446-789) was subcloned and purified according to the following protocols previously reported (Li et al., [2015]). Then it was transferred into E. coli strain BL21 (Codonplus, Stratagene). The E. coli cells carrying the recombinant plasmid were cultured in an 2XYT medium (containing 100 μg/mL ampicillin and 30 μg/mL chloramphenicol) at 37°C until OD600 = 0.6-0.8. And then, 1 mM isopropyl-β-D-thiogalactopyranoside was added in to induce the PDE10A protein expression at 20°C for 24 h. The nickel nitriloacetic acid (Ni-NTA) column (Qiagen) was used for purifying PDE10A proteins. The concentration of the PDE10 fractions was estimated based on the absorbance at 280 nm (calculated by the ProtParam software).
The enzymatic activities of the catalytic domains of PDE10A were performed using ^3H-cGMP solution in the assay buffer of 50 mM Tris pH = 7.5, 4 mM MgCl2, 1 mM DTT, and ^3H-cGMP giving 20,000–30,000 cpm after the reaction terminated per assay. To a solution (DMSO) of test compounds in different concentration, the PDE10A enzyme in the assay buffer was added to perform the enzymatic reaction and then incubated at room temperature for 15 min. The assay was then terminated by addition of 0.2 M ZnSO4, Subsequently, 0.2 N Ba(OH)2 was added to precipitate the reaction product ^3H-GMP, whereas unreacted ^3H-cGMP remained in the supernatant. The radioactivity in the supernatant was measured in 2.5 mL Ultima Gold liquid scintillation cocktails (PerkinElmer) by a liquid scintillation counter (PerkinElmer 2910). The IC50 values of test compounds at PDE10A enzymes were measured by repeating of three independent experiments using the nonlinear regression method.

A short description of test [2]: Antioxidant assay: oxygen radical absorbance capacity fluorescein (ORAC-FL) method. The following applies: AAPH 12 mM, fluorescein 150 nM, pH 7.4, 37°C, samples 1–10 μM. On the procedure:
The modified oxygen radical absorbance capacity fluorescein (ORAC-FL) method was performed to determine the antioxidant activity (Ou et al., [2001]; Dávalos et al., [2004]). The reaction was diluted with 75 mM phosphate buffer (pH = 7.4), and the volume of the final reaction mixture was 200 μL in well. Test compound (20 μL) and fluorescein (120 μL, 150 nM final concentration) were placed in the well of a black 96 well optical bottom plates. After the mixture was incubated at 37°C for 15 min, AAPH solution (60 μL, 12 mM final concentration) was added rapidly. The plate was placed in a Spectrafluor Plus plate reader (Tecan, Crailsheim, Germany) and the fluorescence was recorded every minute for 4 h with an excitation wavelength at 485 nm and emission wavelength at 535 nm. Trolox was used as standard (1–8 μM, final concentration). A blank (fluorescein + AAPH) with phosphate buffer instead of test compounds and trolox calibration were performed for the assays of antioxidants. The samples were measured at different concentration (1–10 μM). All the reaction mixtures were prepared fourfold, and at least three independent assays were performed for each sample. Fluorescence in time course was normalized on basis of the blank (without antioxidants). The ORAC-FL values were calculated as the reported method. Final ORAC-FL values were expressed in μM of trolox equivalents. Ferulic acid was used as the positive reference compound, showing an ORAC-FL value of 1.6 trolox equivalents.

The subject of another test is PDE10A. More on the design: method as in Siuciak et al., 2006a. The settings on record: ref Siuciak et al., 2006a; read-out: IC50 toward PDE10A; cited from earlier work.

Turning to `COc1cc2ncnc(N3CCOCC3)c2cc1OCCc1c[nH]c2ccccc12` [Compound 8a, 4-(6-(2-(1H-indol-3-yl)ethoxy)-7-methoxyquinazolin-4-yl) morpholine], the inhibition at 1 µM in test [1] is 57%. In addition, the “ORAC (oxygen radical absorbance capacity)” value (“ORAC” for short) in test [2] was 1.0 trolox equivalents and 1.0 ± 0.1 trolox equivalents.
As to `COc1cc2ncnc(N3CCOCC3)c2cc1OC(=O)C=Cc1ccc(O)cc1` [Compound 8b, 7-methoxy-4-morpholinoquinazolin-6-yl 3-(4-hydroxyphenyl)acrylate], the inhibition at 1 µM in test [1] was 26%. The “ORAC” value in test [2] is 3.3 trolox equivalents and 3.3 ± 0.1 trolox equivalents.
Consider `COc1cc2ncnc(N3CCOCC3)c2cc1OC(=O)CCCCC1CCSS1` (stereo not drawn) [Compound 8c, 7-methoxy-4-morpholinoquinazolin-6-yl 5-(1,2-dithiolan-3-yl)pentanoate], for which the inhibition at 1 µM in test [1] was found to be 24%. In addition, in test [2], the “ORAC” value came out at 0.3 ± 0.01 trolox equivalents.
One may read the IC50 as the concentration needed to halve the response being measured. For the molecule `COc1cc2ncnc(NCCc3c[nH]c4ccccc34)c2cc1OC` [Compound 11a, N-(2-(1H-indol-3-yl)ethyl)-6,7-dimethoxyquinazolin-4-amine], in test [1], the inhibition at 1 µM turned out to be 72%; the IC50 was < 1 µM and 0.76 µM. The “ORAC” value in test [2] is reported as 1.3 ± 0.1 trolox equivalents.
For `COc1cc2ncnc(NC(C)Cc3c[nH]c4ccccc34)c2cc1OC` (stereo not drawn) [Compound 11b, N-(1-(1H-indol-3-yl)propan-2-yl)-6,7-dimethoxyquinazolin-4-amine], the inhibition at 1 µM in test [1] is 66%. In test [2], the “ORAC” value came to 1.5 ± 0.1 trolox equivalents.
For `COc1ccc2[nH]cc(CCNc3ncnc4cc(OC)c(OC)cc34)c2c1` [Compound 11c, 6,7-dimethoxy-N-(2-(5-methoxy-1H-indol-3-yl)ethyl)quinazolin-4-amine], the inhibition at 1 µM in test [1] stood at 49%. The “ORAC” value in test [2] is 2.2 trolox equivalents and 2.2 ± 0.03 trolox equivalents.
On to `COc1ccc2[nH]cc(CC(C)Nc3ncnc4cc(OC)c(OC)cc34)c2c1` (stereo not drawn) [Compound 11d, 6,7-dimethoxy-N-(1-(5-methoxy-1H-indol-3-yl)propan-2-yl)quinazolin-4-amine], for which, in test [1], the inhibition at 1 µM is 56%. Further, in test [2], the “ORAC” value is 1.3 trolox equivalents and 1.3 ± 0.1 trolox equivalents.
On to `COc1cc2ncnc(NCCc3c[nH]c4ccc(O)cc34)c2cc1OC` [Compound 11e, 3-(2-((6,7-dimethoxyquinazolin-4-yl)amino)ethyl)-1H-indol-5-ol], for which, in test [1], the inhibition at 1 µM was 76%; the IC50 was < 1 µM and 0.64 µM. Also, the “ORAC” value in test [2] was 2.3 trolox equivalents and 2.3 ± 0.2 trolox equivalents.
Consider `COc1cc2ncnc(NCCc3c[nH]c4cc(F)ccc34)c2cc1OC` [Compound 11f, N-(2-(6-fluoro-1H-indol-3-yl)ethyl)-6,7-dimethoxyquinazolin-4-amine], for which, in test [1], the inhibition at 1 µM stood at 78%; the IC50 was < 1 µM and 0.33 µM. For the same molecule, the “ORAC” value in test [2] was 1.0 trolox equivalents and 1.0 ± 0.1 trolox equivalents.
Turning to `COc1cc2ncnc(NCCc3c[nH]c4ccc(C)cc34)c2cc1OC` [Compound 11g, 6,7-dimethoxy-N-(2-(5-methyl-1H-indol-3-Yl)ethyl)quinazolin-4-amine], in test [1], the inhibition at 1 µM was 64%. For the same molecule, the “ORAC” value in test [2] worked out at 1.0 ± 0.2 trolox equivalents.
Taken in the same sequence, the figures for `COc1cc2ncnc(NCCc3c[nH]c4ccc(Br)cc34)c2cc1OC` [Compound 11h, N-(2-(5-bromo-1H-indol-3-yl)ethyl)-6,7-dimethoxyquinazolin-4-amine] were 66% and 1.9 ± 0.1 trolox equivalents.
In the case of `COc1cc2ncnc(NC(C)CCc3c[nH]c4ccccc34)c2cc1OC` (stereo not drawn) [Compound 12], in test [1], the inhibition at 1 µM was 84%; the half-maximal inhibitory concentration (IC50) is < 1 µM and 0.24 µM. The “ORAC” value in test [2] is 1.3 trolox equivalents and 1.3 ± 0.2 trolox equivalents.
As for `COc1cc2ncnc(NCCc3nc4ccccc4[nH]3)c2cc1OC` [Compound 13, N-(2-(1H-benzo[d]imidazol-2-yl)ethyl)-6,7-dimethoxyquinazolin-4-amine], in test [1], the inhibition at 1 µM was 80%; the IC50 is < 1 µM and 0.68 µM. For the same molecule, in test [2], the “ORAC” value came out at 0.15 ± 0.02 trolox equivalents.
Consider `COc1cc(/C=C/C(=O)O)ccc1O` [Ferulic acid, reference compound], for which, in test [2], the “ORAC” value is 1.6 trolox equivalents and 1.6 ± 0.1 trolox equivalents.
For the molecule `COc1ccc(Cc2nccc3cc(OC)c(OC)cc23)cc1OC` [Papaverine], in the test on PDE10A, the IC50 is 0.01 to 0.3 µM.
